Data reported in the supplement of paper PMC10307832.

Experiments:
Test in all cases: relative viability (nuclei count vs DMSO), 5 days (fraction); higher = more cells survive
[1] = compound: CC1(C)CCC(CN2CCN(c3ccc(C(=O)NS(=O)(=O)c4ccc(NCC5CCOCC5)c([N+](=O)[O-])c4)c(Oc4cnc5[nH]ccc5c4)c3)CC2)=C(c2ccc(Cl)cc2)C1 [Venetoclax] + NC(=O)Nc1cc(-c2cccc(F)c2)sc1C(=O)N[C@H]1CCCNC1 [AZD7762] (partner 0.2 µM)
How it was run: (§1)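 Lung cancer cell lines, seeded in 1536-well plates, were treated the following day by pin tool with a single drug or with five library-drug doses (not always all listed) in √10 steps on top of a fixed anchor-drug dose. Cells were fixed and nuclei stained in one step after 5 days, and nuclei were counted. Relative viability is the nuclei count for treated wells divided by that for vehicle wells, reported as medians of duplicate plates.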

[2] = compound: Cn1cnc2c(F)c(Nc3ccc(Br)cc3Cl)c(C(=O)NOCCO)cc21 [Selumetinib] + Nc1ncn([C@H]2C[C@H](O)[C@@H](CO)O2)c(=O)n1 [Decitabine] (partner 2 µM)
How it was run: as §1

[3] = compound: Cn1cnc2c(F)c(Nc3ccc(Br)cc3Cl)c(C(=O)NOCCO)cc21 [Selumetinib] + C[C@@H](Oc1cc(-c2cnn(C3CCNCC3)c2)cnc1N)c1c(Cl)ccc(F)c1Cl [Crizotinib] (partner 1 µM)
How it was run: as §1

[4] = compound: CC1(C)CCC(CN2CCN(c3ccc(C(=O)NS(=O)(=O)c4ccc(NCC5CCOCC5)c([N+](=O)[O-])c4)c(Oc4cnc5[nH]ccc5c4)c3)CC2)=C(c2ccc(Cl)cc2)C1 [Venetoclax] + CC(=O)c1c(C)c2cnc(Nc3ccc(N4CCNCC4)cn3)nc2n(C2CCCC2)c1=O [Palbociclib] (partner 0.5 µM)
How it was run: as §1

| Cell Line | relative viability ([1]; first compound 0.01 µM) | relative viability ([1]; first compound 0.03162 µM) | relative viability ([1]; first compound 0.1 µM) | relative viability ([1]; first compound 0.3162 µM) | relative viability ([1]; first compound 1 µM) | relative viability ([2]; first compound 0.02 µM) | relative viability ([2]; first compound 0.06325 µM) | relative viability ([2]; first compound 0.2 µM) | relative viability ([2]; first compound 0.6325 µM) | relative viability ([3]; first compound 0.02 µM) | relative viability ([3]; first compound 0.06325 µM) | relative viability ([3]; first compound 0.2 µM) | relative viability ([3]; first compound 0.6325 µM) | relative viability ([4]; first compound 0.01 µM) | relative viability ([4]; first compound 0.03162 µM) | relative viability ([4]; first compound 0.1 µM) | relative viability ([4]; first compound 0.3162 µM) | relative viability ([4]; first compound 1 µM) |
| --- | --- | --- | --- | --- | --- | --- | --- | --- | --- | --- | --- | --- | --- | --- | --- | --- | --- | --- |
| NCI-H460 | 0.754 | 0.653 | 0.619 | 0.669 | 0.566 | 0.432 | 0.484 | 0.402 | 0.326 | 0.852 | 0.714 | 0.672 | 0.544 | 0.158 | 0.294 | 0.121 | 0.216 | 0.144 |
| PC-3 [JPC-3] | 0.787 | 0.828 | 0.89 | 0.836 | 0.744 | 0.786 | 0.745 | 0.796 | 0.798 | 0.98 | 0.904 | 0.905 | 0.774 | 0.561 | 0.533 | 0.583 | 0.558 | 0.517 |
| HCC-15 | 1.29 | 1.28 | 1.15 | 1.16 | 1.36 | 0.556 | 0.449 | 0.438 | 0.392 | 0.669 | 0.498 | 0.395 | 0.256 | 0.755 | 0.672 | 0.419 | 0.655 | 0.508 |
| NCI-H1975 | 0.737 | 0.709 | 0.672 | 0.822 | 0.67 | 0.615 | 0.384 | 0.385 | 0.334 | 1.1 | 0.898 | 0.933 | 0.766 | 0.667 | 0.672 | 0.506 | 0.515 | 0.534 |
| ChaGo-K-1 | 0.884 | 0.854 | 0.849 | 0.888 | 0.85 | 0.544 | 0.539 | 0.48 | 0.532 | 1.12 | 1.18 | 1.11 | 1.17 | 0.992 | 0.986 | 0.867 | 0.905 | 0.899 |
| NCI-H727 | 0.592 | 0.769 | 0.423 | 0.648 | 0.604 | 0.762 | 0.578 | 0.606 | 0.583 | 0.558 | 0.348 | 0.316 | 0.255 | 0.655 | 0.586 | 0.658 | 0.82 | 0.651 |
| LK-2 | 0.634 | 0.673 | 0.461 | 0.356 | 0.381 | 0.305 | 0.278 | 0.404 | 0.399 | 0.239 | 0.234 | 0.229 | 0.262 | 0.681 | 0.682 | 0.815 | 0.65 | 0.688 |
| 201T | 0.572 | 0.634 | 0.612 | 0.644 | 0.639 | 0.795 | 0.817 | 0.786 | 0.824 | 1.01 | 0.99 | 0.93 | 0.902 | 0.364 | 0.353 | 0.321 | 0.331 | 0.334 |
| HCC-78 | 0.667 | 0.818 | 0.738 | 0.577 | 0.539 | 0.819 | 0.759 | 0.779 | 0.685 | 0.276 | 0.306 | 0.281 | 0.299 | 0.456 | 0.534 | 0.437 | 0.433 | 0.469 |
| NCI-H650 | 0.986 | 1.1 | 0.872 | 1.22 | 0.899 | 0.334 | 0.283 | 0.342 | 0.376 | 0.793 | 0.593 | 0.575 | 0.67 | 0.319 | 0.387 | 0.345 | 0.366 | 0.303 |
| HARA | 0.299 | 0.214 |  | 0.25 | 0.285 | 0.691 | 0.502 | 0.602 | 0.483 | 1.02 | 1.02 | 0.876 | 0.602 | 0.289 | 0.279 |  | 0.26 | 0.272 |
| NCI-H2087 | 1.26 | 1.32 | 1.17 | 1.46 | 1.56 | 0.267 | 0.253 | 0.249 | 0.213 | 0.989 | 0.706 | 0.665 | 0.434 | 0.257 | 0.257 | 0.235 | 0.249 | 0.188 |
| NCI-H2405 | 0.628 | 0.722 | 0.744 | 0.748 | 0.657 | 0.733 | 0.751 | 0.736 | 0.615 | 0.774 | 0.774 | 0.716 | 0.549 | 0.52 | 0.533 | 0.531 | 0.529 | 0.513 |
| NCI-H1944 | 0.74 | 0.573 | 0.429 | 0.479 | 0.468 | 0.433 | 0.456 | 0.397 | 0.426 | 1.03 | 0.887 | 0.497 | 0.71 | 0.401 | 0.314 | 0.314 | 0.288 | 0.299 |
| NCI-H647 | 0.402 | 0.429 | 0.364 | 0.539 | 0.394 | 0.354 | 0.351 | 0.621 | 0.447 | 1.14 | 0.942 | 0.926 | 0.99 | 0.504 | 0.488 | 0.34 | 0.365 | 0.269 |
| EKVX | 0.698 | 0.766 | 0.743 | 0.695 | 0.671 | 0.339 | 0.29 | 0.37 | 0.339 | 0.909 | 0.889 | 0.614 | 0.639 | 0.438 | 0.397 | 0.378 | 0.331 | 0.363 |
